Measured values published in PubChem BioAssay AID2060616 (Molecular Pharmacology Branch, DTP, NCI, 2025).

System: 377384-186-R-J1-PDC complex spheroid viability
Assay: Anticancer human tumor 377384-186-R-J1-PDC patient-derived pancreatic carcinoma cell line growth inhibition [CLK]
Details: for IC50: curve of first compound; for viability, T/C: stronger effect = lower value
Method in brief: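 Patient-derived tumor cells grown as complex spheroids with HUVEC endothelial cells and mesenchymal stem cells, treated with drug combinations. Concentrations descend in half-log steps from near clinical Cmax, or from 10 microM if Cmax unknown.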

[1] = second compound 0.0316 µM, first compound 0.0316 µM
[2] = second compound 0.0316 µM, first compound 0.1 µM
[3] = second compound 0.0316 µM, first compound 0.316 µM
[4] = second compound 0.0316 µM, first compound 1 µM
[5] = second compound 0.0316 µM, first compound 3.16 µM
[6] = second compound 0.0316 µM, first compound 10 µM
[7] = second compound 0.1 µM, first compound 0.0316 µM
[8] = second compound 0.1 µM, first compound 0.1 µM
[9] = second compound 0.1 µM, first compound 0.316 µM
[10] = second compound 0.1 µM, first compound 1 µM
[11] = second compound 0.1 µM, first compound 3.16 µM
[12] = second compound 0.1 µM, first compound 10 µM
[13] = second compound 0.316 µM, first compound 0.0316 µM
[14] = second compound 0.316 µM, first compound 0.1 µM
[15] = second compound 0.316 µM, first compound 0.316 µM
[16] = second compound 0.316 µM, first compound 1 µM
[17] = second compound 0.316 µM, first compound 3.16 µM
[18] = second compound 0.316 µM, first compound 10 µM
[19] = second compound 1 µM, first compound 0.0316 µM
[20] = second compound 1 µM, first compound 0.1 µM
[21] = second compound 1 µM, first compound 0.316 µM
[22] = second compound 1 µM, first compound 1 µM
[23] = second compound 1 µM, first compound 3.16 µM
[24] = second compound 1 µM, first compound 10 µM
[25] = second compound 3.16 µM, first compound 0.0316 µM
[26] = second compound 3.16 µM, first compound 0.1 µM
[27] = second compound 3.16 µM, first compound 0.316 µM
[28] = second compound 3.16 µM, first compound 1 µM
[29] = second compound 3.16 µM, first compound 3.16 µM
[30] = second compound 3.16 µM, first compound 10 µM
[31] = second compound 10 µM, first compound 0.0316 µM
[32] = second compound 10 µM, first compound 0.1 µM
[33] = second compound 10 µM, first compound 0.316 µM
[34] = second compound 10 µM, first compound 1 µM
[35] = second compound 10 µM, first compound 3.16 µM
[36] = second compound 10 µM, first compound 10 µM
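Further: spheroids exposed to agents for 7 days before reading.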
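Wherever viability, T/C is given: luminescence signal used as a stand-in for viable cells.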

COc1ccc([C@@H](O)c2cc(-c3ncnc4cc(N5CCOCC5)ccc34)c(F)cc2Cl)nn1 + CNC(=O)c1ccc(Nc2nc(OC3CCCC3)c3c(-c4ccc5nc(C)oc5c4)c[nH]c3n2)c(OC)c1
IC50 (second compound 0.0316 µM): 1640 nM | IC50 (second compound 0.1 µM): < 31.6 nM | IC50 (second compound 0.316 µM): < 31.6 nM | IC50 (second compound 1 µM): < 31.6 nM | IC50 (second compound 3.16 µM): < 31.6 nM | IC50 (second compound 10 µM): < 31.6 nM | viability, T/C [1]: 93.6% | viability, T/C [2]: 99.5% | viability, T/C [3]: 92% | viability, T/C [4]: 54.9% | viability, T/C [5]: 49.6% | viability, T/C [6]: 29.4% | viability, T/C [7]: 36.8% | viability, T/C [8]: 33.5% | viability, T/C [9]: 40.5% | viability, T/C [10]: 35% | viability, T/C [11]: 26.5% | viability, T/C [12]: 19.5% | viability, T/C [13]: 16.1% | viability, T/C [14]: 14.4% | viability, T/C [15]: 17.4% | viability, T/C [16]: 16.6% | viability, T/C [17]: 16.1% | viability, T/C [18]: 13.6% | viability, T/C [19]: 15.9% | viability, T/C [20]: 18.2% | viability, T/C [21]: 18.3% | viability, T/C [22]: 15.9% | viability, T/C [23]: 15.3% | viability, T/C [24]: 15.5% | viability, T/C [25]: 14.7% | viability, T/C [26]: 17.8% | viability, T/C [27]: 18.1% | viability, T/C [28]: 16.2% | viability, T/C [29]: 16.6% | viability, T/C [30]: 15.5% | viability, T/C [31]: 15.7% | viability, T/C [32]: 13.2% | viability, T/C [33]: 17.6% | viability, T/C [34]: 15.7% | viability, T/C [35]: 17.3% | viability, T/C [36]: 15.4%

COc1cccc2c1C(=O)c1c(O)c3c(c(O)c1C2=O)CC(O)(C(=O)CO)CC3OC1CC(N)C(O)C(C)O1 (centres undefined) + CNC(=O)c1ccc(Nc2nc(OC3CCCC3)c3c(-c4ccc5nc(C)oc5c4)c[nH]c3n2)c(OC)c1
IC50 (second compound 0.0316 µM): < 31.6 nM | IC50 (second compound 0.1 µM): < 31.6 nM | IC50 (second compound 0.316 µM): < 31.6 nM | IC50 (second compound 1 µM): < 31.6 nM | IC50 (second compound 3.16 µM): < 31.6 nM | IC50 (second compound 10 µM): < 31.6 nM | viability, T/C [1]: 10.2% | viability, T/C [2]: 4.37% | viability, T/C [3]: 1.55% | viability, T/C [4]: 0.38% | viability, T/C [5]: 3.07% | viability, T/C [6]: 5.83% | viability, T/C [7]: 9.1% | viability, T/C [8]: 3.91% | viability, T/C [9]: 1.38% | viability, T/C [10]: 0.45% | viability, T/C [11]: 3.75% | viability, T/C [12]: 7.17% | viability, T/C [13]: 9.14% | viability, T/C [14]: 3.32% | viability, T/C [15]: 1.45% | viability, T/C [16]: 0.82% | viability, T/C [17]: 4.73% | viability, T/C [18]: 9.99% | viability, T/C [19]: 7.32% | viability, T/C [20]: 2.1% | viability, T/C [21]: 0.65% | viability, T/C [22]: 0.52% | viability, T/C [23]: 3.63% | viability, T/C [24]: 11.6% | viability, T/C [25]: 9.23% | viability, T/C [26]: 1.54% | viability, T/C [27]: 0.4% | viability, T/C [28]: 0.63% | viability, T/C [29]: 5.3% | viability, T/C [30]: 7.54% | viability, T/C [31]: 7.12% | viability, T/C [32]: 2.27% | viability, T/C [33]: 0.51% | viability, T/C [34]: 1.07% | viability, T/C [35]: 5.51% | viability, T/C [36]: 9.57%
